Here are results for one molecule from patent US9006185B2, “Use of cell-permeable peptide inhibitors of the JNK signal transduction pathway for the treatment of various diseases” (Xigen Inflammation Ltd., priority 2008, dated 2015).

“Also recorded” adds a separate entry of the source.

One series has as its system TC-3 cells. The series can be described thus: Cellular import of fluorescein-labeled TAT and TAT-IB1(s) peptides. It is filed as cell-based. How it is done: The ability of the L- and D-enantiomeric forms of TAT and TAT-IB1(s) peptides (“TAT-IB peptides”) to enter cells was evaluated. L-TAT, D-TAT, L-TAT-IB1(s), and D-TAT-IB1(s) peptides [SEQ ID NOs: 5, 6, 9 and 12, respectively] were labeled by N-terminal addition of a glycine residue conjugated to fluorescein. Labeled peptides (1 μM) were added to TC-3 cell cultures, which were maintained as described in Example 3. At predetermined times cells were washed with PBS and fixed for five minutes in ice-cold methanol-acetone (1:1) before being examined under a fluorescence microscope. Fluorescein-labeled BSA (1 μM, 12 moles/mole BSA) was used as a control.
Little to no signal was present at 48 hours.
Fluorescent signals from these all-D retro-inverso peptides were still very strong 1 week later, and the signal was only slightly diminished at 2 weeks post treatment.

The test system of series [1] is Varicella-Zoster Virus (VZV). The series can be described thus: Plaque reduction assay against VZV in HFFs. The series is classed as cell-based, human. Conditions: for Spread of VZV (pfu) ± SD: 24 hours. How it is done:
Additionally, inhibitors of cell functions may be toxic to cells, which could non-specifically prevent virus growth. […] Since this may falsify the results, a cytotoxicity assay was carried out first, determining the tolerance of the cultured cells to the test compound. Subsequently, a plaque reduction assay was carried out and then activity of the JNK inhibitor peptide XG-102 (SEQ ID NO: 11) was tested with respect to […] (VZV) in infected cells. • A) Determination of the Cytotoxicity of all-D Retro-Inverso Ib(s) Peptides: • For determination of toxicity, cultured cells (human foreskin fibroblasts (HFFs)) were seeded in 96-well tissue culture plates. Medium containing DMSO (same level as 5 μM XG-102 (SEQ ID NO: 11)), or XG-102 (SEQ ID NO: 11) was added at several concentrations of (1, 2, and 5 μM) for 24 h. Subsequently, a Neutral Red assay was carried out. Neutral Red colorimetric assays for cytotoxicity assays (in sets of 6 replicates) were used to set the maximum dose for subsequent efficacy assays (as performed in Taylor et al, 2004, J. Virology, 78:2853-2862). Live cells absorb Neutral Red and, accordingly, the level of absorbance is a quantitative measure of cell viability and number. Neutral Red uptake is directly proportional to the number of cells and also reflects normal endocytosis. Therefore, a brief pulse of Neutral Red was added to the medium at 0 or 24 hours. After fixation and extraction, dye was added and the amount of dye in each sample was measured in an ELISA plate reader at 540 nm (see FIG. 4). […] In this plaque reduction assay, confluent human foreskin fibroblasts (HFFs) in 24-well plates were inoculated with VZV-infected HFFs at a ratio of 1:100 (multiplicity of infection MOI=0.01) and adsorbed to the cells for 2 hours. The excess virus was washed out, and medium containing 0 (DMSO only), 0.5, 1, or 2 μM XG-102 (SEQ ID NO: 11) was added. One sample was taken at this time to measure the initial level of infection; wherein each well contained ˜150 pfu. After 24 hours, duplicate wells were trypsinized, and then the cell suspensions were titered on MeWo cell monolayers in triplicate to determine the number of VZV-infected cells in each sample. During unrestricted growth, VZV usually increases by 10-fold over 1 day because it propagates by cell-cell spread. […]
(In general: In a plaque reduction assay, fewer plaques than in the control indicate reduced infectivity or spread.)

Series [2] concerns Varicella-Zoster Virus (VZV). The series can be described thus: VZV-BAC-Luc replication in HFFs, luciferase assay. It is filed as cell-based, human. Particulars: 24 h, 0.25, 0.5, 1.0 μM tested. As to the method:
Virus yield was measured by luciferase assay. Samples were in triplicate and the average luminescence is shown; error bars represent the standard deviation of the mean.

A further series relates to THP-1 cells. The series can be described thus: LPS-induced cytokine and chemokine release in THP-1 cells. It is filed as cell-based.
For series [3] the following is noted: kept at 4-8° C.
Experimental: Unused diluted material could be stored for up to 7 days if kept at 4-8° C. c) Experimental Procedure

`CC(C)C[C@@H](NC(=O)[C@@H](Cc1ccccc1)NC(=O)[C@H]1CCCN1C(=O)[C@@H](CCC(N)=O)NC(=O)[C@H](NC(=O)[C@H]1CCCN1C(=O)[C@@H](CCCNC(=N)N)NC(=O)[C@@H](CO)NC(=O)[C@@H](CCC(N)=O)NC(=O)[C@H](N)CC(=O)O)C(C)C)C(=O)N[C@H](CC(N)=O)C(=O)N[C@H](CC(C)C)C(=O)N[C@@H](C(=O)N[C@@H](C(=O)N1CCC[C@@H]1C(=O)N[C@H](CCCNC(=N)N)C(=O)N[C@H](CCCCN)C(=O)N1CCC[C@@H]1C(=O)N[C@H](CCCNC(=N)N)C(=O)N1CCC[C@@H]1C(=O)N1CCC[C@@H]1C(=O)N[C@H](CCCNC(=N)N)C(=O)N[C@H](CCCNC(=N)N)C(=O)N[C@H](CCCNC(=N)N)C(=O)N[C@H](CCC(N)=O)C(=O)N[C@H](CCCNC(=N)N)C(=O)N[C@H](CCCNC(=N)N)C(=O)N[C@H](CCCCN)C(=O)N[C@H](CCCCN)C(=O)N[C@H](CCCNC(=N)N)C(=O)NCC(=O)O)[C@H](C)O)[C@H](C)O` [XG-102]: the “entry into cells (fluorescence microscopy)” value with TC-3 cells is “efficiently and rapidly (less than five minutes) entered cells”. For the same molecule, the “stability inside the cells” value in the series on TC-3 cells was “extremely stable inside the cells”. The “Spread of VZV (pfu) ± SD” value is reported as 260 ± 53 pfu in series [1] (0.5 μM), 212 ± 48 pfu in series [1] (1.0 μM) and 312 ± 79 pfu in series [1] (2.0 μM). Further, the “antiviral effect against VZV” value in series [1] (0.5, 1, 2 μM) is on record as “potent inhibitor of Varizella Zoster Virus (VZV); also recorded: strong antiviral effect at all the concentrations tested”. For the same molecule, in series [1] (all the concentrations tested (0.5-2 μM)), the VZV yields was 200-300 pfu. Moreover, in series [2], the “concentration preventing VZV replication (lowest concentration tested)” value was at most 0.25 µM. Further, the “LPS-induced TNFa, IL-6 and MCP-1 release” value with THP-1 cells was “reducing LPS-induced TNFa, IL-6 and MCP-1 release in THP-1 cells”. In addition, the “storage of unused diluted material” value in series [3] was “up to 7 days”.
